Entries after “also recorded” stand apart in the source; their conditions may differ.
Columns and labels:
Format in all cases: cell-based
[1] = test system: foetal-like (immature) cardiomyocytes derived from PESC; test: Metabolic profile by TMRM assay (flow cytometry); details: 100 ng/ml T3 in culture medium, 17 days, 5 nM TMRM, compared to medium lacking T3
Protocol: Foetal-like (immature) cardiomyocytes derived from PESC in in vitro culture were divided in two experimental groups. The first group was exposed to a culture medium composition as taught herein but which lacked T3 (control situation). The second group was exposed to a culture medium composition as taught herein but which comprised T3 (100 ng/ml). Both groups were incubated in their respective culture medium composition for 17 days. An amount of 5 nM TMRM (Invitrogen) was added in the respective media the day before measurement. Cells were dissociated using 5× Tryple, but with TMRM included in all solutions and also present during measurement, Measurements were performed on a Miltenyi MACSquant VYB flow cytometer.

[2] = test system: foetal-like (immature) cardiomyocytes derived from human pluripotent embryonic stem cells (PESCs); test: Electrophysiological properties by perforated patch clamp; details: 100 ng/ml T3 in culture medium, 12 days, compared to medium lacking T3
Protocol: Foetal-like (immature) cardiomyocytes derived from PESC in in vitro culture were divided in two experimental groups. The first group was exposed to a culture medium composition as taught herein but which lacked T3 (control situation). The second group was exposed to a culture medium composition as taught herein but which comprised T3 (100 ng/ml). Both groups were incubated in their respective culture medium composition for 12 days. At the term of the treatment, foetal-like (immature) cardiomyocytes from both experimental groups were subjected to a patch clamp procedure.
Patch clamp electrophysiology was performed as described by Bellin, M. et al. EMBO J 32, 3161-3175 (2013)). using minor modifications. Action potentials from small groups of cells (5-10 cells) were measured with the perforated patch clamp technique using an Axopatch 200b amplifier (Molecular Devices) and low resistance patch pipettes (1.5-2.5 MΩ). Data acquisition and analyses of action potentials were performed with pClamp 10 (axon instruments) and custom made software. Action Potentials were corrected for the calculated liquid junction potential (−15 mV).
Action potentials from spontaneous beating cells were measured at […] using a modified Tyrode's solution containing (in mM): 140 NaCl, 5.4 KCl, 1.8 CaCl2, 1.0 MgCl2, 5.5 glucose, 5.0 HEPES; pH7.2 (NaOH). The pipette solution contained (in mM): 125 K-gluconate, 20 KCl, 5 NaCl, 0.22 amphotericin-B, 10 HEPES; pH 7.2 (KOH). The resting membrane potential (RMP), maximal upstroke velocity (dV/dt max), AP amplitude in mV (APA), and AP duration in milli-seconds (APD) at 20, 50 and 90% repolarization (APD50, and APD90, respectively) were analyzed. Upstroke velocity was calculated from the first derivative of the change in voltage as a function of time. Thus the maximum upstroke velocity (dV/dt max) is equal to the maximum positive value of the first derivative of the action potential. Data from 10 consecutive action potentials were averaged.

[3] = test system: foetal-like (immature) cardiomyocytes derived from human pluripotent embryonic stem cells (PESCs); test: Morphological features by alpha-actinin immunofluorescence; details: 100 ng/ml T3 in culture medium composition, 5 days, compared to medium lacking T3
Protocol: Foetal-like (immature) cardiomyocytes derived from PESC in in vitro culture were divided in two experimental groups. The first group was exposed to a culture medium composition as taught herein but which lacked T3 (control situation). The second group was exposed to a culture medium composition as taught herein but which comprised T3 (100 ng/ml). Both groups were incubated in their respective culture medium composition for 5 days, At the term of the treatment, cardiomyocytes from both experimental groups were fixed in 4% paraformaldehyde, permeabilised with phosphate buffer saline (PBS)/0.1% Triton X-100 (Sigma-Aldrich), and blocked with phosphate buffer saline (PBS)/0.1% Triton X-100 (Sigma-Aldrich) 1% BSA. Samples were incubated 1-hour at room temperature with a primary antibodies specific for the following: alpha-actinin (Eptomics Ab 68167) (at a concentration of 1/400), The primary antibody was detected with either Cy3- or Alexa-Fluor 647-conjugated secondary antibodies (at a concentration of 1/250). Images were captured using either a Leica SP5-STED or a Leica SP5 confocal laser-scanning microscope (Leica Microsystems).

N[C@@H](Cc1cc(I)c(Oc2ccc(O)c(I)c2)c(I)c1)C(=O)O [T3, triiodothyronine]
mitochondrial activity (TMRM-associated orange fluorescence) [1]: enhanced mitochondrial activity; also recorded: increased mitochondrial activity | amplitude of the action potential [2]: greater amplitude of the action potential; also recorded: increased amplitude of the action potential | maximal upstroke velocity (dV/dt max) [2]: greater maximal upstroke velocity; also recorded: increased maximum upstroke velocity | resting membrane potential [2]: lower resting membrane potential | morphological features (maturation into adult-like cardiomyocytes) [3]: polarization of cells, improved sarcomeric organization, and elongated shape
